According to patent US20250268906A1, “MOLECULAR GLUE COMPOUND BASED ON CEREBLON PROTEIN DESIGN AND USE THEREOF” (GLUETACS THERAPEUTICS (SHANGHAI) CO., LTD., priority 2022, published 2025):
Like-named read-outs stand apart in the source and are kept apart here.

How the values were obtained:
[1] = biological target: human Cereblon WT GST-tagged protein (Homo sapiens (Human), UniProt Q96SW2); assay: CRBN binding, HTRF (CEREBLON BINDING kit)
Method: The CEREBLON BINDING kits (specification: 10,000 tests; product number: Catalog #64BDCRBNPEH; CISBIO company) was used to determine the CRBN binding ability of the compounds to be tested through a HTRF method (homogeneous time-resolved fluorescence). The specific methods are as follows: • 1. […] Then, 2.5 μL of human Cereblon WT GST-tagged protein solution was added to each well. Finally, 5 μL of the thoroughly mixed Thalidomide-Re reagent and GST Eu antibody working solution were added to each of the aforementioned wells. […] The blank control wells were sequentially added with 2.5 μL of diluent #9 (1×) solution, 2.5 μL of PROTAC binding buffer, and 5 μL of thoroughly mixed Thalidomide-Re reagent and GST Eu antibody working solution. • 4.
The corresponding CRBN binding inhibition rate was calculated using the following method: […]
OD 620 nmcompound is the absorbance value of each well of the compounds of the present disclosure to be tested at an emission wavelength of 620 nm. […] OD 620 nmcontrol is the absorbance value of the blank control well at an emission wavelength of 620 nm. […] OD 620 nmStd0 is the absorbance value of the solvent control well at an emission wavelength of 620 nm.

[2] = test system: TMD8 cells; assay: Tumor cell proliferation inhibition, CCK-8 kit, 96 h; format: cell-based; conditions: Homo sapiens, read-out: IC50 for inhibiting the proliferation of tumor cells, TMD8 cell
Method: (§1) The tumor cells used herein were cultured in RPMI 1640 medium supplemented with 10% FBS, penicillin to a final concentration of 100 U/mL, and streptomycin to a final concentration of 100 μg/mL, at 37° C. in an incubator with 5% CO2. Prior to experimentation, all cells used were correctly identified by STR profiling, and tested negative for Mycoplasma through routine screenings.
(§2) After 24 h, 100 μL of the inoculated cells were treated with 0.5 μL of the compounds of the present disclosure (including the compounds in Table 1, and Examples compounds) in DMSO at 10 different successively decreasing concentrations (starting at a maximum concentration of 10 μM; 5-fold serial dilutions). […] The growth inhibition of the compounds of the present disclosure on the cells was plotted using Prism Graphpad software, and the IC50 values of the compounds of the present disclosure were calculated.

[3] = test system: Mino cells; assay: as above; format: cell-based; conditions: Homo sapiens
Method: as §1, §2

[4] = test system: Daudi cells; assay: as above; format: cell-based; conditions: Homo sapiens
Method: as §1, §2

[5] = test system: MM.1S cells; assay: as above; format: cell-based; conditions: Homo sapiens, MM1.S
Method: as §1, §2

[6] = biological target: IKZF1 protein (Homo sapiens (Human), UniProt Q13422+Q96SW2); assay: Western blot, substrate protein degradation in hPBMC; format: cell-based; conditions: 24 h
Text: (§3) The supernatant, containing the total cellular protein, was aspirated.

[7] = biological target: IKZF3 protein (Homo sapiens (Human), UniProt Q96SW2+Q9UKT9); assay: as above; format: cell-based; conditions: 24 h
Text: as §3

[8] = biological target: GSPT1 protein (Homo sapiens (Human), UniProt P15170+Q96SW2); conditions: hPBMC, 24 h, 50 nM
Text: as §3

[9] = Mino cells, CCK-8, read-out: IC50 for inhibiting the proliferation of tumor cells, Mino cell
[10] = Daudi cells, CCK-8, read-out: IC50 for inhibiting the proliferation of tumor cells, Daudi cell
[11] = MM.1S cells, CCK-8, read-out: IC50 for inhibiting the proliferation of tumor cells, MM.1S cell

human Cereblon WT GST-tagged protein, sequence (Q96SW2 whole entry): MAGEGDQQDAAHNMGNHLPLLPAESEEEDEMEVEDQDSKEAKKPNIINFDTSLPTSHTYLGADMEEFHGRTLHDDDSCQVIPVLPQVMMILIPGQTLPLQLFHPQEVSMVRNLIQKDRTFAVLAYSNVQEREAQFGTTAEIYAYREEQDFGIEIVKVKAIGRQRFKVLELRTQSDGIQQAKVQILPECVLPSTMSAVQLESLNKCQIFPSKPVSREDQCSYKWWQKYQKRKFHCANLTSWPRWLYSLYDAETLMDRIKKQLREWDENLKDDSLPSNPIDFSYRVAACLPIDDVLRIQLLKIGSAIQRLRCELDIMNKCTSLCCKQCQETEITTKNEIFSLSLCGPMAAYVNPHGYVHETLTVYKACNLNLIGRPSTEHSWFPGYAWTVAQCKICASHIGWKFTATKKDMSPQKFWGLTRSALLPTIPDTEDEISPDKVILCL
IKZF1 protein, sequence (Q13422 whole entry): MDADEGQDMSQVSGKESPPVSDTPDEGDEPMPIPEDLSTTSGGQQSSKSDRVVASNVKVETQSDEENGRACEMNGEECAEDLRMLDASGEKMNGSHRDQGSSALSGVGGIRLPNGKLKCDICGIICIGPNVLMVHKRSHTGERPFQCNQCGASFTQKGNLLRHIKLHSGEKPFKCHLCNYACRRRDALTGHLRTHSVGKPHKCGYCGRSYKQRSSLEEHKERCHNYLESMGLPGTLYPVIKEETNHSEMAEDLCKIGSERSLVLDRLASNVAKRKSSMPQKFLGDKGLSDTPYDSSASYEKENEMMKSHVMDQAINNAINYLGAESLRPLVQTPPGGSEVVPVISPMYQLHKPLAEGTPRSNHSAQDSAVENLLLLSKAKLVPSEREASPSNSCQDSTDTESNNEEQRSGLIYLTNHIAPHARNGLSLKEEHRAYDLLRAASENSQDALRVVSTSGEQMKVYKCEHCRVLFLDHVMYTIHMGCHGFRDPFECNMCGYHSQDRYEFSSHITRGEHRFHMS
IKZF1 protein, sequence (Q96SW2 whole entry): as the sequence (Q96SW2 whole entry) above
IKZF1 protein, sequence (Q16531 whole entry partner): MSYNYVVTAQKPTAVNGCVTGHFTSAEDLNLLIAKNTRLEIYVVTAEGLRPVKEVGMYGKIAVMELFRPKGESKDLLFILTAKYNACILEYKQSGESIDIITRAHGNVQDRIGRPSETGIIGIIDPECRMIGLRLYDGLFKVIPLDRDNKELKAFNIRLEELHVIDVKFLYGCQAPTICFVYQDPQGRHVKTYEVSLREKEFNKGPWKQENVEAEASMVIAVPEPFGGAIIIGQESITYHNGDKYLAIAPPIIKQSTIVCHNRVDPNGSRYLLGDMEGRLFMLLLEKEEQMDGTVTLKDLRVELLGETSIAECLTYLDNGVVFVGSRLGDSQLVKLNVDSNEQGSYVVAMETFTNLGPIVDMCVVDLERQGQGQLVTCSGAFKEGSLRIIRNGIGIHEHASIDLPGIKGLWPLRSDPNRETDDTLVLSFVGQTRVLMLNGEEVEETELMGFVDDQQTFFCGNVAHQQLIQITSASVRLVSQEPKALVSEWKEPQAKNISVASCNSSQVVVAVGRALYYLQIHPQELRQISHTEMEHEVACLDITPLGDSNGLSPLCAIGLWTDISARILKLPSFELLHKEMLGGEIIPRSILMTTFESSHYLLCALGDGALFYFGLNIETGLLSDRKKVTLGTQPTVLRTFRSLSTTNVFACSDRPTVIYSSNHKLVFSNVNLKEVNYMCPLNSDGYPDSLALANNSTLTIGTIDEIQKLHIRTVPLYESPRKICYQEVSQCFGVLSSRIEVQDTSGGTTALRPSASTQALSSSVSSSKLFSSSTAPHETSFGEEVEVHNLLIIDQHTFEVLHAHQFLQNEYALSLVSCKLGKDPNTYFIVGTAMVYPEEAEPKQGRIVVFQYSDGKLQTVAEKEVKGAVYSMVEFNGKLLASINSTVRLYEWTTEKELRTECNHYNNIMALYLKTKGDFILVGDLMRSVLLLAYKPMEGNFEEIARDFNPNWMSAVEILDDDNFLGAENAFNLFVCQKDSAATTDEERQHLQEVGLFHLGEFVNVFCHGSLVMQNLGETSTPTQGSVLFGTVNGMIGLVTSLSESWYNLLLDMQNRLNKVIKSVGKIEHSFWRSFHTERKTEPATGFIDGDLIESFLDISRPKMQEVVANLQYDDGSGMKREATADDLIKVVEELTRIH
IKZF3 protein, sequence (Q9UKT9 whole entry): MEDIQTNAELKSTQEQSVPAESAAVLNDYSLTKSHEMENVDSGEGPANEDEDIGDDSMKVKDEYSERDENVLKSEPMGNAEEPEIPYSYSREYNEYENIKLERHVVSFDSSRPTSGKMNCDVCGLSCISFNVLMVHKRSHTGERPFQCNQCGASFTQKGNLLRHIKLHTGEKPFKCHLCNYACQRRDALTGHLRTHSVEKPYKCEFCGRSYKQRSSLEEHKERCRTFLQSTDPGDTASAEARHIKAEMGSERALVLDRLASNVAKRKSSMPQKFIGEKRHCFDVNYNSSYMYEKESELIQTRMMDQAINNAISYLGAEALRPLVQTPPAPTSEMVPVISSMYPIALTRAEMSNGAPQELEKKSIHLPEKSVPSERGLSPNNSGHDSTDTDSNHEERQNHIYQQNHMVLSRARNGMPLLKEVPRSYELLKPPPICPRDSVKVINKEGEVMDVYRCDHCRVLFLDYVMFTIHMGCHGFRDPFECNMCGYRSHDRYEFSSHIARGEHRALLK
IKZF3 protein, sequence (Q96SW2 whole entry): as the sequence (Q96SW2 whole entry) above
IKZF3 protein, sequence (Q16531 whole entry partner): as the sequence (Q16531 whole entry partner) above
GSPT1 protein, sequence (P15170 whole entry, looked up): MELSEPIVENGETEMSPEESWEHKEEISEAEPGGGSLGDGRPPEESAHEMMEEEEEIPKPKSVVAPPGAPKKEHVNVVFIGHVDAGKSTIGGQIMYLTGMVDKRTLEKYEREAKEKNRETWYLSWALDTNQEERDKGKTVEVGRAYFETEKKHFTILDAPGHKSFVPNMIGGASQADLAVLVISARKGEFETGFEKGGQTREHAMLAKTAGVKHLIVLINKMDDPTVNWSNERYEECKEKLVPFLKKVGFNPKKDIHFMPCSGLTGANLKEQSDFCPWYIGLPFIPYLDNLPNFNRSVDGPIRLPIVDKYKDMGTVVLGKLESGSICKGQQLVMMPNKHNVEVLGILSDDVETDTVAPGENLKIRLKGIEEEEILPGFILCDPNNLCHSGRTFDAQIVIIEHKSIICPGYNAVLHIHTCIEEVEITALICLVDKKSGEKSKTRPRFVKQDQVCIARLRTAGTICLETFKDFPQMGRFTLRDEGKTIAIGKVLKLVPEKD
GSPT1 protein, sequence (Q96SW2 whole entry, looked up): as the sequence (Q96SW2 whole entry) above
GSPT1 protein, sequence (Q16531 whole entry partner, looked up): as the sequence (Q16531 whole entry partner) above

SMILES	IC50 [1]	IC50 [3, 9]	IC50 [5, 11]	further results
O=C1CCC(N2Cc3c(SCc4ccc(CN5CCC(F)(F)CC5)cc4)cc(F)cc3C2=O)C(=O)N1 (stereo not drawn) [GT-04024, 3-(4-((4-((4,4-difluoropiperidin-1-yl)methyl)benzyl)thio)-6-fluoro-1-oxoisoindolin-2-yl)piperidine-2,6-dione]	< 600 nM			IC50 ([2]; TMD8 cells, 96 h, CCK-8): 5 to 10 nM
O=C1CCC(N2Cc3c(SCc4ccc(CN5CCCCC5)cc4)cc(F)cc3C2=O)C(=O)N1 (stereo not drawn) [GT-04117, 3-(6-fluoro-1-oxo-4-((4-(piperidin-1-ylmethyl)benzyl)thio)isoindolin-2-yl)piperidine-2,6-dione]	< 600 nM	< 5 nM		IC50 ([2]; TMD8 cells, 96 h, CCK-8): 10 to 50 nM; IC50 [4, 10]: 500 to 1000 nM
O=C1CCC(N2Cc3c(SCCCCNC45CC6CC(CC(C6)C4)C5)cc(F)cc3C2=O)C(=O)N1 (stereo not drawn) [GT-04243, 3-(4-((4-((adamantan-1-yl)amino)butyl)thio)-6-fluoro-1-oxoisoindolin-2-yl)piperidine-2,6-dione]	< 600 nM			
CCN(CC)CCCCCCCCSc1cc(F)cc2c1CN(C1CCC(=O)NC1=O)C2=O (stereo not drawn) [GT-05342, 3-(4-((8-(diethylamino)octyl)thio)-6-fluoro-1-oxoisoindolin-2-yl)piperidine-2,6-dione]	< 600 nM			
O=C1CCC(N2Cc3c(SCCCCCCC(=O)N4CCCCC4)cc(F)cc3C2=O)C(=O)N1 (stereo not drawn) [GT-05343, 3-(6-fluoro-1-oxo-4-((7-oxo-7-(piperidin-1-yl)heptyl)thio)isoindolin-2-yl)piperidine-2,6-dione]	< 600 nM	10 to 50 nM		
O=C1CCC(N2Cc3c(SCCCCCCCN4CCCCC4)cc(F)cc3C2=O)C(=O)N1 (stereo not drawn) [GT-05344, 3-(6-fluoro-1-oxo-4-((7-(piperidin-1-yl)heptyl)thio)isoindolin-2-yl)piperidine-2,6-dione]	< 600 nM			
O=C1CCC(N2Cc3c(SCCCCCCC(=O)N4CCC(F)(F)CC4)cc(F)cc3C2=O)C(=O)N1 (stereo not drawn) [GT-05407, 3-(4-((7-(4,4-difluoropiperidin-1-yl)-7-oxoheptyl)thio)-6-fluoro-1-oxoisoindolin-2-yl)piperidine-2,6-dione]	< 600 nM	10 to 50 nM	50 to 100 nM	
O=C1CCC(N2Cc3c(SCCCCCCCN4CCC(F)(F)CC4)cc(F)cc3C2=O)C(=O)N1 (stereo not drawn) [GT-05408, 3-(4-((7-(4,4-difluoropiperidin-1-yl)heptyl)thio)-6-fluoro-1-oxoisoindolin-2-yl)piperidine-2,6-dione]	< 600 nM	50 to 100 nM		
CN(CCCCCCCSc1cc(F)cc2c1CN(C1CCC(=O)NC1=O)C2=O)C12CC3CC(CC(C3)C1)C2 (stereo not drawn) [GT-05421, 3-(4-((7-((adamantan-1-yl)(methyl)amino)heptyl)thio)-6-fluoro-1-oxoisoindolin-2-yl)piperidine-2,6-dione]	< 600 nM	< 5 nM	< 5 nM	
O=C1CCC(N2Cc3c(SCCCCCCCNC4CC5(CCC5)C4)cc(F)cc3C2=O)C(=O)N1 (stereo not drawn) [GT-05422, 3-(6-fluoro-1-oxo-4-((7-(spiro[3.3]heptan-2-ylamino)heptyl)thio)isoindolin-2-yl)piperidine-2,6-dione]	< 600 nM	< 5 nM	< 5 nM	
O=C1CCC(N2Cc3c(SCc4ccc(CCNC56CC7CC(CC(C7)C5)C6)cc4)cc(F)cc3C2=O)C(=O)N1 (stereo not drawn) [GT-05431, 3-(4-((4-(2-((adamantan-1-yl)amino)ethyl)benzyl)thio)-6-fluoro-1-oxoisoindolin-2-yl)piperidine-2,6-dione]	< 600 nM	< 5 nM	< 5 nM	IC50 [4, 10]: < 5 nM
O=C1CCC(N2Cc3c(SCc4ccc(CN5CCCCC5)c(F)c4)cc(F)cc3C2=O)C(=O)N1 (stereo not drawn) [GT-05443, 3-(6-fluoro-4-((3-fluoro-4-(piperidin-1-ylmethyl)benzyl)thio)-1-oxoisoindolin-2-yl)piperidine-2,6-dione]	< 600 nM	< 5 nM	10 to 50 nM	IC50 [4, 10]: 100 to 500 nM; concentration at which IKZF1 protein is significantly degraded ([6]; Western blot): below 0.1 nM; concentration at which IKZF3 protein is significantly degraded ([7]; Western blot): below 10 nM
O=C1CCC(N2Cc3c(CCCCCCCCNC45CC6CC(CC(C6)C4)C5)cc(F)cc3C2=O)C(=O)N1 (stereo not drawn) [GT-05617, 3-(4-(8-((adamantan-1-yl)amino)octyl)-6-fluoro-1-oxoisoindolin-2-yl)piperidine-2,6-dione]	< 600 nM	50 to 100 nM		
Nc1cccc2c1C(=O)N(C1CCC(=O)NC1=O)C2=O (stereo not drawn) [pomalidomide, reference compound]				degradation of GSPT1 protein [8]: does not degrade; IC50 ([2]; TMD8, 96 h): 100 to 500 nM; IC50 ([5]; read-out: IC50 for inhibiting the proliferation of tumor cells, MM.1S cell): 100 to 500 nM; IC50 ([3]; MINO, read-out: IC50 for inhibiting the proliferation of tumor cells, Mino cell): 100 to 500 nM; IC50 ([4]; Daudi, read-out: IC50 for inhibiting the proliferation of tumor cells, Daudi cell): 1000 to 5000 nM; degradation of IKZF1 protein ([6]; 50 nM): does not degrade; degradation of IKZF3 protein ([7]; 50 nM): does not degrade

Further lines, with some results ahead:

IC50 [1]	IC50 [3, 9]	IC50 [5, 11]	SMILES	further results
< 600 nM			O=C1CCC(N2Cc3c(SCCCCCCCNC45CC6CC(CC(C6)C4)C5)cc(F)cc3C2=O)C(=O)N1 (stereo not drawn) [GT-04333, 3-(4-((7-((adamantan-1-yl)amino)heptyl)thio)-6-fluoro-1-oxoisoindolin-2-yl)piperidine-2,6-dione]	
< 600 nM			O=C1CCC(N2Cc3c(SCCCCCCCCN4CCOCC4)cc(F)cc3C2=O)C(=O)N1 (stereo not drawn) [GT-05341, 3-(6-fluoro-4-((8-morpholinooctyl)thio)-1-oxoisoindolin-2-yl)piperidine-2,6-dione]	
< 600 nM	< 5 nM		O=C1CCC(N2Cc3c(SCCCCCCCNC4CCCCC4)cc(F)cc3C2=O)C(=O)N1 (stereo not drawn) [GT-05409, 3-(4-((7-(cyclohexylamino)heptyl)thio)-6-fluoro-1-oxoisoindolin-2-yl)piperidine-2,6-dione]	
< 600 nM	< 5 nM	< 5 nM	O=C1CCC(N2Cc3c(SCc4ccc(CNC56CC7CC(CC(C7)C5)C6)cc4)cc(F)cc3C2=O)C(=O)N1 (stereo not drawn) [GT-05423, 3-(4-((4-(((adamantan-1-yl)amino)methyl)benzyl)thio)-6-fluoro-1-oxoisoindolin-2-yl)piperidine-2,6-dione]	
< 600 nM	< 5 nM	10 to 50 nM	CC1(C)[C@@H]2CC[C@@]1(C)[C@@H](NCc1ccc(CSc3cc(F)cc4c3CN(C3CCC(=O)NC3=O)C4=O)cc1)C2 (stereo partly drawn) [GT-05424, 3-(6-fluoro-1-oxo-4-((4-((((1R,2S,4R)-1,7,7-trimethylbicyclo[2.2.1]heptan-2-yl)amino)methyl)benzyl)thio)isoindolin-2-yl)piperidine-2,6-dione]	IC50 [4, 10]: 100 to 500 nM
< 600 nM	< 5 nM	50 to 100 nM	CC1(C)[C@@H]2CC[C@@]1(C)[C@@H](NCCCCCCCSc1cc(F)cc3c1CN(C1CCC(=O)NC1=O)C3=O)C2 (stereo partly drawn) [GT-05425, 3-(6-fluoro-1-oxo-4-((7-(((1R,2S,4R)-1,7,7-trimethylbicyclo[2.2.1]heptan-2-yl)amino)heptyl)thio)isoindolin-2-yl)piperidine-2,6-dione]	IC50 [4, 10]: 500 to 1000 nM
< 600 nM	< 5 nM	< 5 nM	O=C1CCC(N2Cc3c(SCc4ccc(CN5CCC(F)(F)CC5)c(F)c4)cc(F)cc3C2=O)C(=O)N1 (stereo not drawn) [GT-05444, 3-(4-((4-((4,4-difluoropiperidin-1-yl)methyl)-3-fluorobenzyl)thio)-6-fluoro-1-oxoisoindolin-2-yl)piperidine-2,6-dione]	IC50 [4, 10]: 10 to 50 nM
